Here are results for 26 compounds from patent publication US12448369B2 (Edgewise Therapeutics, Inc., priority 2023, dated 2025).

Experiment [1] has as its system Rabbit Psoas myofibrils (skeletal myosin ATPase). The experiment is described as follows: Myofibril ATPase assay, rabbit psoas (skeletal) myofibrils. The format is biochemical. Particulars: rabbit psoas myofibrils. The gist of the method: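 Myofibrils homogenized in Triton X-100 buffer were assayed in pH 7.0 PIPES with defined Ca2+/EGTA. Myosin-driven ADP formation was coupled to NADH oxidation, with depletion monitored at 340 nm. Each value is the concentration that lowers activity to 75% of vehicle or, for activators, raises it to 125%.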

Experiment [2] relates to Porcine atria myofibrils (atrial myosin ATPase). The experiment is described as follows: Myofibril ATPase assay, porcine atria myofibrils. Particulars: porcine atria myofibrils. Type of experiment: biochemical. The method in brief:
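Values are Y75 (concentration cutting ATPase activity to 75% of vehicle) or Y125 (raising it to 125%), taken from 4-parameter logistic fits. Rates come from NADH disappearance at 340 nm in a PK/LDH-coupled assay with porcine atria myofibrils.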

Experiment [3] has as its target T1, Porcine ventricle myofibrils (ventricular myosin ATPase) (Sus scrofa, UniProt P79293).
T1 construct: Myofibrils from porcine cardiac muscle was isolated from the left ventricle of Yucatan minipigs; tissue Exemplar Genetics; host or cells: left ventricle of Yucatan minipigs, myofibrils prepared in house
The experiment is described as follows: Myofibril ATPase assay, porcine ventricle myofibrils. Type of experiment: biochemical, porcine (Yucatan minipigs). As to conditions: porcine ventricle myofibrils. The method in brief: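 Test compounds acted on myofibrils isolated from the left ventricle of Yucatan minipigs. ADP formation was coupled via pyruvate kinase/lactate dehydrogenase to NADH oxidation, monitored kinetically at 340 nm over 75 min. Rates relative to vehicle were fitted with a 4-parameter logistic model, reported as Y75 (25% inhibition) or Y125 (activation) concentrations.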

Setting [4] is: Y75 value (75% activity relative to no compound).

T1 sequence (P79293 whole entry): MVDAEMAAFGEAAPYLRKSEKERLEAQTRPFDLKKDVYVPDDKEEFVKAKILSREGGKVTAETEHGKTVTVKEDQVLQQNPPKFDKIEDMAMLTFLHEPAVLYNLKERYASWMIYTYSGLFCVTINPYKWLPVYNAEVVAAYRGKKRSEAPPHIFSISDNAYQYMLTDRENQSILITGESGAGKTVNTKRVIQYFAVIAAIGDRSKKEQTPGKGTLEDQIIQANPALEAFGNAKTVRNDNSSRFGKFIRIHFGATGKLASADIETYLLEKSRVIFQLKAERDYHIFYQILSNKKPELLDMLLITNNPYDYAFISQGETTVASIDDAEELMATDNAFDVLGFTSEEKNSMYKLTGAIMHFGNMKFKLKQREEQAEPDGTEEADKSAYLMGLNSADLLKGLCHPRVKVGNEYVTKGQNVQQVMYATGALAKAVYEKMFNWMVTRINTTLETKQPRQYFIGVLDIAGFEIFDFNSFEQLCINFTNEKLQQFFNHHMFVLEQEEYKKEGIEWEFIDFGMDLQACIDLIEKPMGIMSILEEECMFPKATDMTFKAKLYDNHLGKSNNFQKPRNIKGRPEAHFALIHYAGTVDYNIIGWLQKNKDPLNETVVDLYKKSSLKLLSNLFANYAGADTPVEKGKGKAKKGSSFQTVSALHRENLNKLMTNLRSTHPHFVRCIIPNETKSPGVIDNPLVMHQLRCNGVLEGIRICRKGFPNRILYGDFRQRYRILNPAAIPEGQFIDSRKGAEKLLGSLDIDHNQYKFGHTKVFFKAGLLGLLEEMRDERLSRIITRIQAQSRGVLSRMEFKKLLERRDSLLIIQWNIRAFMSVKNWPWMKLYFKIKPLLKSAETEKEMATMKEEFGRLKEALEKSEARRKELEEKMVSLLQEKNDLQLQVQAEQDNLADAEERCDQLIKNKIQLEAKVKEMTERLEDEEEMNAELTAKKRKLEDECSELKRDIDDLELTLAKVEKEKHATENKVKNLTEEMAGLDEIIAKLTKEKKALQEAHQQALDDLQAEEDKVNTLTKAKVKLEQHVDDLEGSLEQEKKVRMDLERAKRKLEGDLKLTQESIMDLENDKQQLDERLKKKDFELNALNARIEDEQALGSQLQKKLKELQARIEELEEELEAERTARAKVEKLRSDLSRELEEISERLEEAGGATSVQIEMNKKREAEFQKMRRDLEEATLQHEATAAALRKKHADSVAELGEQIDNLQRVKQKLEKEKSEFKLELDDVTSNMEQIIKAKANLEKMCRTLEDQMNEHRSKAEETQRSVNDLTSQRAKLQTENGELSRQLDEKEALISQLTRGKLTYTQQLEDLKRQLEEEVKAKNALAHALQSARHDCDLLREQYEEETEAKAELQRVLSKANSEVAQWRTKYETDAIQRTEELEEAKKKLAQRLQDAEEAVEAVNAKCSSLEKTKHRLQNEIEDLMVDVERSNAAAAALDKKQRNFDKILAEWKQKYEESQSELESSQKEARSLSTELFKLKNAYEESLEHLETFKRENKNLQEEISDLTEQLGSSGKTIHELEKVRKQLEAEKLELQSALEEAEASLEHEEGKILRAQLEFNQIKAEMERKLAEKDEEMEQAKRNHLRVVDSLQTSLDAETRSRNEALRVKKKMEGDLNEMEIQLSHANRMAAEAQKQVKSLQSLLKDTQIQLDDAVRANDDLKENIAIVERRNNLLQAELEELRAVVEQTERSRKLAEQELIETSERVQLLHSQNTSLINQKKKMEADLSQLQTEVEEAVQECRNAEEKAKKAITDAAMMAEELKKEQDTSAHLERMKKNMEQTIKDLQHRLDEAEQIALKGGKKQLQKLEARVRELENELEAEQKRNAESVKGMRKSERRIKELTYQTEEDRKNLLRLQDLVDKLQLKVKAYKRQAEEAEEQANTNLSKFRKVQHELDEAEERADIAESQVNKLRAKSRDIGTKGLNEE

Take `Cc1c(CC(=O)NC(C)c2cnc(C#N)cn2)c(=O)[nH]c2ccc(F)c(F)c12` (stereo in doubt) [compound 1145, (S)—N-(1-(5-cyanopyrazin-2-yl)ethyl)-2-(5,6-difluoro-4-methyl-2-oxo-1,2-dihydroquinolin-3-yl)acetamide]: the “Skeletal EC25” value in experiment [1] (Y75 value (no ‡ mark)) was 30 nM. Besides, in experiment [2] (Y75 value (no ‡ mark)), the “Atrial EC25” value was found to be 60 nM. In experiment [3] (Y75 value (no ‡ mark)), the “Ventricular EC25” value worked out at 70 nM.
In the case of `Cc1nccc2[nH]c(=O)c([C@H](C)C(=O)N[C@@H](C)c3ccc(F)cc3F)cc12` (single isomer, unassigned) [compound 442], the “Skeletal EC25” value in experiment [1] (Y75 value) was found to be 12410 nM. In addition, the “Atrial EC25” value in experiment [2] (setting [4]) came out at 100000 nM. For the same compound, the “Ventricular EC25” value in experiment [3] (Y75 value) came out at 100000 nM.
For `Cc1ccncc1[C@H](C)NC(=O)Cc1c(C)c2cc(F)ccc2[nH]c1=O` [compound 1049], in experiment [1] (Y75 value (no ‡ mark)), the “Skeletal EC25” value amounted to 29000 nM. The “Atrial EC25” value in experiment [2] (Y75 value (no ‡ mark)) was found to be 100000 nM. In addition, in experiment [3] (Y75 value (no ‡ mark)), the “Ventricular EC25” value worked out at 100000 nM.
For the compound `Cc1c(CC(=O)N[C@H]2COc3cc(C#N)cnc32)c(=O)[nH]c2ccc(F)cc12` [compound 1063], the “Skeletal EC25” value in experiment [1] (Y75 value (no ‡ mark)) was found to be 220 nM. The “Atrial EC25” value in experiment [2] (Y75 value (no ‡ mark)) came to 160 nM. For the same compound, in experiment [3] (Y75 value (no ‡ mark)), the “Ventricular EC25” value amounted to 760 nM.
In the case of `Cc1ccc([C@@H](CO)NC(=O)Cc2c(C)c3c(C)nccc3[nH]c2=O)cc1` (single isomer, unassigned) [compound 335], the “Skeletal EC25” value in experiment [1] (Y75 value) came to 26390 nM. Moreover, the “Atrial EC25” value in experiment [2] (setting [4]) came out at 100000 nM. The “Ventricular EC25” value in experiment [3] (Y75 value) came to 100000 nM.
Take `Cc1c(CC(=O)N[C@@H](C)c2ccc(F)cc2F)c(=O)[nH]c2ccnc(OCC(C)C)c12` [compound 371]: in experiment [1] (Y75 value), the “Skeletal EC25” value is 370 nM. Moreover, in experiment [2] (setting [4]), the “Atrial EC25” value was found to be 3040 nM. Moreover, the “Ventricular EC25” value in experiment [3] (Y75 value) turned out to be 100000 nM.
On to `Cc1c(CC(=O)N[C@H](C)c2ncc(C#N)cc2F)c(=O)[nH]c2ccc(OC(F)(F)F)nc12` [compound 455], for which, in experiment [1] (Y75 value), the “Skeletal EC25” value was found to be 5740 nM. Also, the “Atrial EC25” value in experiment [2] (setting [4]) came to 7110 nM. In addition, the “Ventricular EC25” value in experiment [3] (Y75 value) was found to be 100000 nM.
Turning to `Cc1c(C(F)(F)C(=O)N[C@H](C)c2ncc(F)cc2F)c(=O)[nH]c2ccc(F)cc12` (single isomer, unassigned) [compound 4819], the “Skeletal EC25” value in experiment [1] (Y75 value (no ‡ mark)) turned out to be 1020 nM. Further, in experiment [2] (Y75 value (no ‡ mark)), the “Atrial EC25” value was found to be 280 nM. The “Ventricular EC25” value in experiment [3] (Y75 value (no ‡ mark)) was 2650 nM.
With `COc1ccccc1[C@@H](C)NC(=O)Cc1c(C)c2c(C)nccc2[nH]c1=O` (single isomer, unassigned) [compound 318], the “Skeletal EC25” value in experiment [1] (Y75 value) amounted to 27680 nM. In addition, in experiment [2] (setting [4]), the “Atrial EC25” value was found to be 100000 nM. Moreover, the “Ventricular EC25” value in experiment [3] (Y75 value) came to 100000 nM.
For `Cc1c(CC(=O)N[C@@H](C)c2ccc(F)cc2F)c(=O)[nH]c2cccc(F)c12` [compound 130], in experiment [1] (Y75 value (no ‡ mark)), the “Skeletal EC25” value is 30 nM. The “Atrial EC25” value in experiment [2] (Y75 value (no ‡ mark)) was 20 nM. Also, the “Ventricular EC25” value in experiment [3] (Y75 value (no ‡ mark)) came out at 150 nM.
Regarding `Cc1nc(C#N)ncc1[C@@H](C)NC(=O)Cc1c(C)c2c(F)c(F)ccc2[nH]c1=O` [compound 1131], in experiment [1] (Y75 value (no ‡ mark)), the “Skeletal EC25” value amounted to 530 nM. Also, the “Atrial EC25” value in experiment [2] (Y75 value (no ‡ mark)) was 350 nM. Besides, the “Ventricular EC25” value in experiment [3] (Y75 value (no ‡ mark)) worked out at 890 nM.
In the same order, the values of `Cc1c(CC(=O)N[C@@H](C)c2ncc(C#N)cc2F)c(=O)[nH]c2ccc(Cl)cc12` (single isomer, unassigned) [compound 2050] are 40 nM, 90 nM and 180 nM.
As for `Cc1ccccc1[C@H](C)NC(=O)Cc1c(C)c2c(C)nccc2[nH]c1=O` (single isomer, unassigned) [compound 327], the “Skeletal EC25” value in experiment [1] (Y75 value) was found to be 670 nM. The “Atrial EC25” value in experiment [2] (setting [4]) came to 3290 nM. Further, the “Ventricular EC25” value in experiment [3] (Y75 value) is 9240 nM.
`Cc1nccc2[nH]c(=O)c(CC(=O)N[C@@H]3c4c(F)cc(F)cc4OC3(C)C)c(C)c12` (single isomer, unassigned) [compound 190]: in experiment [1] (Y75 value), the “Skeletal EC25” value turned out to be 100000 nM. In addition, the “Atrial EC25” value in experiment [2] (setting [4]) worked out at 8110 nM. In experiment [3] (Y75 value), the “Ventricular EC25” value was 45620 nM.
For `Cc1c(CC(=O)N[C@@H](C)c2ncc(C#N)cc2F)c(=O)[nH]c2cc(F)c(F)cc12` [compound 1105], in experiment [1] (Y75 value (no ‡ mark)), the “Skeletal EC25” value was 1360 nM. For the same compound, the “Atrial EC25” value in experiment [2] (Y75 value (no ‡ mark)) came out at 100000 nM. For the same compound, the “Ventricular EC25” value in experiment [3] (Y75 value (no ‡ mark)) was found to be 4470 nM.
Take `Cc1nccc2[nH]c(=O)c(CC(=O)N[C@@H](CCO)c3ccc(F)cc3F)c(C)c12` (single isomer, unassigned) [compound 342]: in experiment [1] (Y75 value), the “Skeletal EC25” value turned out to be 11140 nM. In addition, in experiment [2] (setting [4]), the “Atrial EC25” value was 3650 nM. Also, the “Ventricular EC25” value in experiment [3] (Y75 value) was determined as 52000 nM.
As for `COc1ccc2[nH]c(=O)c(CC(=O)N[C@H](C)c3ncc(F)cc3F)cc2c1C` (single isomer, unassigned) [compound 79], the “Skeletal EC25” value in experiment [1] (Y75 value (no ‡ mark)) is 100000 nM. Further, the “Atrial EC25” value in experiment [2] (Y75 value (no ‡ mark)) was found to be 100000 nM. In addition, the “Ventricular EC25” value in experiment [3] (Y75 value (no ‡ mark)) was 100000 nM.
As for `Cc1c(CC(=O)N[C@H](C)c2ncc(C#N)cc2F)c(=O)[nH]c2ccc(F)c(C(F)(F)F)c12` [compound 21], the “Skeletal EC25” value in experiment [1] (Y75 value (no ‡ mark)) was found to be 40 nM. In addition, the “Atrial EC25” value in experiment [2] (Y75 value (no ‡ mark)) worked out at 30 nM. The “Ventricular EC25” value in experiment [3] (Y75 value (no ‡ mark)) is 130 nM.
The like results for `Cc1c(CC(=O)N[C@@H](C)c2ccc(C#N)cn2)c(=O)[nH]c2ccc(F)c(C3CC3)c12` [compound 24] were, in that order, 40 nM, 50 nM and 210 nM.
With `Cc1nccc2[nH]c(=O)c(CC(=O)N[C@H]3CCc4cc(C#N)cc(F)c43)c(C)c12` (single isomer, unassigned) [compound 198], the “Skeletal EC25” value in experiment [1] (Y75 value) was determined as 20 nM. The “Atrial EC25” value in experiment [2] (setting [4]) amounted to 310 nM. Also, in experiment [3] (Y75 value), the “Ventricular EC25” value was found to be 180 nM.
Take `Cc1c(F)ccc2[nH]c(=O)c(CC(=O)N[C@@H](C)c3ncc(F)cc3F)c(C#N)c12` [compound 1148]: the “Skeletal EC25” value in experiment [1] (Y75 value (no ‡ mark)) turned out to be 50 nM. The “Atrial EC25” value in experiment [2] (Y75 value (no ‡ mark)) was 60 nM. For the same compound, in experiment [3] (Y75 value (no ‡ mark)), the “Ventricular EC25” value turned out to be 90 nM.
`Cc1c(CC(=O)N[C@@H](C)c2ccc(F)cc2F)c(=O)[nH]c2ccc(O)c(C#N)c12` [compound 84]: in experiment [1] (Y75 value (no ‡ mark)), the “Skeletal EC25” value worked out at 7240 nM. Moreover, the “Atrial EC25” value in experiment [2] (Y75 value (no ‡ mark)) came out at 2520 nM. Moreover, the “Ventricular EC25” value in experiment [3] (Y75 value (no ‡ mark)) was 55560 nM.
In the same order, the values of `Cc1c(CC(=O)N[C@@H](C)c2ncc(C#N)cc2F)c(=O)[nH]c2ccc(F)cc12` [compound 1107] are 30 nM, 120 nM and 150 nM.
The like results for `CCc1c(CC(=O)N[C@@H](C)c2ncc(C#N)cn2)c(=O)[nH]c2ccc(F)c(C)c12` (single isomer, unassigned) [compound 2002] were, in that order, 110 nM, 290 nM and 210 nM.
The like results for `C[C@@H](NC(=O)Cc1c(C2CC2)c2c(F)c(F)ccc2[nH]c1=O)c1ccc(C#N)nn1` (single isomer, unassigned) [compound 2065] were, in that order, 1100 nM, 100000 nM and 100000 nM.
Turning to `Cc1c(CC(=O)N[C@@H]2COc3cccnc32)c(=O)[nH]c2ccnc(C#N)c12` (single isomer, unassigned) [compound 212], in experiment [1] (Y75 value), the “Skeletal EC25” value came to 2210 nM. Further, the “Atrial EC25” value in experiment [2] (setting [4]) was 14710 nM. Also, the “Ventricular EC25” value in experiment [3] (Y75 value) was 35350 nM.
